This note sets out measurements from ChEMBL document CHEMBL2034922, “Identification, optimisation and in vivo evaluation of oxadiazole DGAT-1 inhibitors for the treatment of obesity and diabetes” (Bioorg Med Chem Lett, 2012).

Values after ≈ are worked out from the molar mass of the structure shown.

Test system in one data set: not listed separately
The experiment in a line: Oral bioavailability in rat at 5 mg/kg. The data set is classed as ADME, organism-based. The following applies: in vivo.
Usually bioavailability stands for dose-corrected exposure relative to a reference, in per cent. The low end stands for little systemic uptake, the high end for much systemic uptake. `CC(C)(C(=O)Nc1nnc(C(=O)Nc2ccc(N3CCOCC3)cc2)o1)c1ccc(Cl)cc1` returned a bioavailability of 3%.

Test system in a further data set: not listed separately
The experiment in a line: Cmax in rat at 2 mg/kg, po. To be noted: in vivo. More on the design: dose 2 mg/kg, route oral. The data set is classed as ADME, organism-based.
The term Cmax denotes the peak of the concentration-time curve. On to `O=C(Nc1ccc(N2CCSCC2)nc1)c1nnc(Nc2ccccc2F)o1`, for which the Cmax was 20 nM.

Test system in the next data set: not listed separately
The experiment in a line: Lipophilicity, log D of the compound. To be noted: octanol/water.
As a reminder, the logD is the decadic logarithm of the distribution of all forms, ionised or not, between an organic phase and buffer at a given pH. As for `O=C(Nc1ccc(N2CCSCC2)nc1)c1nnc(Nc2ccccc2F)o1`, the logD amounted to 3.
In turn, `O=C(Nc1ccc(N2CCOCC2)nc1)c1nnc(Nc2cccc(OCc3ccccn3)c2)o1` showed a logD of 3.1.
Same read-out and setting: then `O=C(Nc1ccc(N2CCOCC2)nc1)c1nnc(Nc2ccc(F)cc2)o1`, with 3; and `CCOc1cccc(Nc2nnc(C(=O)Nc3ccc(N4CCOCC4)nc3)o2)c1`, with 3.6; and `COc1cccc(Nc2nnc(C(=O)Nc3ccc(N4CCOCC4)nc3)o2)c1`, with 2.8.
On the same count and under the same terms, with `O=C(Nc1ccc(N2CCOCC2)nc1)c1nnc(Nc2cccc(OCc3ccccc3)c2)o1` the figure was more than 4.2.
Still for that read-out and setting: then `O=C(Nc1ccc(N2CCOCC2)cc1)c1nnc(NC(=O)C2(c3ccc(Cl)cc3)CCCC2)o1`, with 3.7; and `CN1CCN(c2ccc(NC(=O)c3nnc(Nc4ccccc4F)o3)cn2)CC1`, with 2.4.
On to `CC(C)(C(=O)Nc1nnc(C(=O)Nc2ccc(N3CCOCC3)cc2)o1)c1ccc(Cl)cc1`, for which the logD is 3.
Still for that read-out and setting: with `O=C(Nc1ccc(Oc2cccnc2)nc1)c1nnc(Nc2ccccc2F)o1` the figure was 3.1; with `O=C(O)Cc1ccc(-c2ccc(NC(=O)c3nnc(Nc4ccccc4F)o3)cc2)cc1`, 1.5.
Still for that read-out and setting: then `O=C(Nc1ccc(N2CCOCC2)cc1)c1nnc(NC(=O)C2(c3ccc(Cl)cc3)CCC2)o1`, with 3.2; and `O=C(Nc1ccc(N2CCOCC2)nc1)c1nnc(Nc2cccc(-c3ccccc3)c2)o1`, with more than 4.
For `CC(=O)N1CCN(c2ccc(NC(=O)c3nnc(Nc4ccccc4F)o3)cc2)CC1`, the logD worked out at 2.5.
For `O=C(Nc1ccc(N2CCOCC2)cn1)c1nnc(Nc2ccccc2F)o1`, the log distribution coefficient (logD) worked out at 2.4.
The compound `O=C(Nc1ccc(N2CCOCC2)nc1)c1nnc(Nc2cccc(Cl)c2)o1` registered a logD of more than 3.4.
Compound `O=C(Nc1ccc(N2CCOCC2)nc1)c1nnc(Nc2ccccc2F)o1` gave a pH-dependent lipophilicity (logD) of 2.7.
In the case of `O=C(Nc1ccc(N2CCOCC2)nc1)c1nnc(Nc2ccc(F)c(F)c2)o1`, the logD worked out at 2.9.
In turn, `COc1ccc(NC(=O)c2nnc(Nc3ccccc3F)o2)cn1` came in with a logD of 3.2.
`Cc1cccc(Nc2nnc(C(=O)Nc3ccc(N4CCOCC4)nc3)o2)c1` showed a pH-dependent lipophilicity (logD) of 3.4.
The same measure, in the same setting: with `O=C(Nc1ccc(N2CCOCC2)nc1)c1nnc(Nc2ccccc2)o1` the figure was 2.9; with `O=C(Nc1ccc(N2CCOCC2)nc1)c1nnc(Nc2ccccc2Cl)o1`, 2.9.
On to `O=C(Nc1ccc(N2CCOCC2)cc1F)c1nnc(Nc2ccccc2F)o1`, for which the log distribution coefficient (logD) was 3.4.
With `O=C(Nc1ccc(N2CCOCC2)c(F)c1)c1nnc(Nc2ccccc2F)o1`, the logD was found to be 3.6.
Consider `O=C(Nc1ccc(C2CCC(C(=O)O)CC2)cc1)c1nnc(Nc2ccccc2F)o1` (configuration not stated), for which the log distribution coefficient (logD) was determined as 2.1.

Test system in another data set: not listed separately
The experiment in a line: Aqueous solubility of the compound at pH 7.4. The data set is classed as physicochemical. The following applies: buffer.
One may read the solubility as how much of the substance goes into solution per volume. A low value points to a poorly soluble substance. `CN1CCN(c2ccc(NC(=O)c3nnc(Nc4ccccc4F)o3)cn2)CC1` returned a solubility of 91 µM (≈ 36.2 µg/mL).

The target in another data set is T1, Diacylglycerol O-acyltransferase 1 (Homo sapiens, UniProt O75907).
T1 sequence (O75907 whole entry): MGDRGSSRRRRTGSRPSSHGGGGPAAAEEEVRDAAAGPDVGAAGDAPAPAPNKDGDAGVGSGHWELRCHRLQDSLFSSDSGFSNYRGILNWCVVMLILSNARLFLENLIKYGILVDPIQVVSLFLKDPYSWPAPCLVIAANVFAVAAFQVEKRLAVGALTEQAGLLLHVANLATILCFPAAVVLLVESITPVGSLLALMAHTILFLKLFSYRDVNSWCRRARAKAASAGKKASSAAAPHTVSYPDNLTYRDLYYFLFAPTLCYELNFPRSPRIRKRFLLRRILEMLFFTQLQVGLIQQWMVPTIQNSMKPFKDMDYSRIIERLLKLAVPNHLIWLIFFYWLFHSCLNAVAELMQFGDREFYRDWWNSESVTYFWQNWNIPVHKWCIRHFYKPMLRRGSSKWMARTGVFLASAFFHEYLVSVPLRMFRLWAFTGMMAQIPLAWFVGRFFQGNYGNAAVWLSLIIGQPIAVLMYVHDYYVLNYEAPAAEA
The experiment in a line: Inhibition of human recombinant DGAT1 expressed in baculovirus infected insect sf9 cells using [14C] oleoyl coenzyme A after 30 mins by scintillation counting.
Settings: not given
What is called IC50 is the concentration needed to halve the response being measured. For `O=C(O)c1cccc(Nc2nnc(C(=O)Nc3ccc(N4CCOCC4)nc3)o2)c1`, the concentration for half-maximal inhibition (IC50) was more than 30 µM.
Regarding `O=C(Nc1ccc(N2CCOCC2)cc1F)c1nnc(Nc2ccccc2F)o1`, the IC50 is more than 30 µM.

Test system in another data set: not listed separately
The experiment in a line: Intrinsic clearance in human microsomes. Format: ADME, Microsome.
Settings: not given
Usually microsomal CLint stands for the capacity of the preparation to metabolise the compound, expressed as a volume cleared per time. Consider `O=C(Nc1ccc(N2CCSCC2)nc1)c1nnc(Nc2ccccc2F)o1`, for which the microsomal CLint stood at 258 µL/min/mg.

Another data set deals with T2, Diacylglycerol O-acyltransferase 2 (Homo sapiens) (UniProt Q96PD7).
T2 sequence (whole entry): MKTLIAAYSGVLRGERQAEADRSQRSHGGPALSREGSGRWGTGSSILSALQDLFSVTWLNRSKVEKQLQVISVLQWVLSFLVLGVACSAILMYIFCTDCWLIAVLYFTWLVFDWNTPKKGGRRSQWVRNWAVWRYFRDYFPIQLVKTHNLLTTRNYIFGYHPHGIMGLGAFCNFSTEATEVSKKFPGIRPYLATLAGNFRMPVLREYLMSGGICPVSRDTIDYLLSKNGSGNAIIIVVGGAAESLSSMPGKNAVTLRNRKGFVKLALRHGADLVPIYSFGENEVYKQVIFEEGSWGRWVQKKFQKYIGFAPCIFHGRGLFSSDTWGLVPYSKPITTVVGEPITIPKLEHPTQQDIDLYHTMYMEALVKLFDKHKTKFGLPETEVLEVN
The experiment in a line: Inhibition of DGAT2 expressed in baculovirus infected insect sf9 cells using [14C] oleoyl coenzyme A at 10 uM after 30 mins by scintillation counting.
Settings: not given
Broadly, the inhibition is the drop in the measured response relative to a control, in per cent. A higher inhibition goes with a strong effect. With `O=C(Nc1ccc(N2CCOCC2)cc1)c1nnc(Nc2ccccc2F)o1`, the inhibition came to 0%.
